Measurements published in US20080009573A1, “Labeled tackifiers” (priority 2006, published 2008).

- melting point: 64 to 66 °C
Compound: C=CCN1C(=O)c2cccc3c(CNCCOC(=O)C4(C)CCCC5(C)C6CCC(C(C)C)=CC6=CCC45)ccc(c23)C1=O (stereo not shown) [Compound 17, 7-Isopropyl-1,4a-dimethyl-1,2,3,4,4a,4b,5,6,10,10a-decahydro-phenanthrene-1-carboxylic acid 2-[(2-allyl-1,3-dioxo-2,3-dihydro-1H-benzo[de]isoquinolin-6-yl)methylamino]ethyl ester]
